# Key:
# [1] = system: myr-ABI and PYL-eGFP-Tiam1 in CHO cells; assay: H2O2-induced ruffle formation (Tiam1 membrane localization); assay type: cell-based
# From the text: To further investigate whether a complex biological process can be triggered by H2O2-induced protein dimerization, we examined the membrane ruffle formation resulting from localized Rho GTPase activation. Tiam1 is a guanine exchange factor for Rac, a member of Rho GTPase. The membrane translocation of Tiam1 activated Rac signaling pathway and induced ruffle formation, which is involved in cell migration and morphogenesis. We constructed an ABA-inducible Tiam1 membrane localization system, which consists of DNA plasmids encoding the membrane-localized ABI (myr-ABI; Liang et al., 2011, Sci. Signal. 4, rs2) and the cytoplasmic eGFP/PYL-fused Tiam1 (PYL-eGFP-Tiam1) (FIG. 2a). CHO cells were transfected with these plasmids for 24 hours and then incubated for one hour without additive, or with 10 μM of ABA, ABA-HP or ABA-HP plus 10 eq of H2O2. The ruffle formation in cells was analyzed by the confocal microscopy.
# Ruffle generation experiment: CHO were seeded in 24-well plates at 50 K/well with coverslip for 24 hours. 0.1 μg PYL-eGFP-Tiam1 and 0.1 μg myr-ABI (FIG. 2a, iii) of DNA plasmid were used for each well, with 30 μL of Opti-MEM (Life Technologies, Carlsbad, Calif.) and 1.8 μL PEI. After incubation at room temperature for 15 min, the mixture was added to the cells and cultured for 24 hours. […]
# [2] = system: HEK 293T eGFP reporter cells (VP-PYL and GAL4DBD-ABI); assay: H2O2-induced eGFP expression (transcriptional activation); assay type: cell-based
# From the text: To determine if the ABA generated from the H2O2-induced cleavage of ABA-HP is biologically active, we tested whether it could induce downstream biological processes. We first investigated H2O2-induced transcriptional activation using an HEK 293T stable cell line, in which enhanced GFP (eGFP) expression occurs only in the presence of functional ABA. The cell line was created with both the ABA-responsive split transcriptional activator DNA fragment (VP-PYL and GAL4DBD-ABI linked by IRES; Liang et al., 2011, Sci. Signal. 4, rs2) and an inducible eGFP DNA fragment (with 5×UAS) inserted into the genome (FIG. 2a).
# We tested the response of our system to H2O2 at physiologically relevant concentrations under cell culture conditions. The eGFP reporter cells were treated with no drug, or 10 μM of ABA, ABA-HP, or ABA-HP exposed to H2O2 (1, 5 or 10 eq) for five to 24 hours. The expression of eGFP was monitored at specific time points using a fluorescence microscope. […] Alternatively, for cellular experiments, cell culture media can be exchanged regularly with media containing fresh ABA-HP and thus restrict the build-up of esterase-cleaved ABA.
# EGFP expression experiments: HEK 293T (GFP) cells were seeded 24 hours prior to treatment in 24-well plates at 100 K/well. 10 μM ABA-HP was added to the cells 10 minutes prior to the addition of 10 μM ABA and 10, 50, or 100 μM of H2O2. Images were taken for living cells at 5 hours, 7 hours, 10 hours and 24 hours.
# An Axio Observer D1 fluorescent microscope (Carl Zeiss AG, Oberkochen, Germany) outfitted with HBO 100 microscopy illumination system (Carl Zeiss AG, Oberkochen, Germany; GFP: excitation 470/40 and emission 525/50) was used to analyze GFP expression and NES localization. A 20× objective was used to analyze GFP expression. A 63× objective was used for NES localization.
"stability within cells ([2]; 10 μM, no H2O2, inferred from absent eGFP expression)",Structure (SMILES),"ruffle formation ([1]; 10 μM, compound alone, CHO cells)","eGFP expression ([2]; 10 μM, compound alone, after five hours)","ruffle formation ([1]; 10 μM plus 10 eq of H2O2, CHO cells)","eGFP expression ([2]; 10 μM plus H2O2 (1, 5 or 10 eq), after five hours)",dependence of eGFP expression on H2O2 level ([2]; 10 μM plus different amounts of H2O2),"eGFP expression ([2]; 10 μM, compound alone, extended incubation 24 hours)","eGFP expression ([2]; 10 μM, compound alone, no H2O2, within 10 hours)"
–,"CC1=CC(=O)CC(C)(C)C1(O)/C=C/C(C)=C\C(=O)O (centres unmarked) [ABA, abscisic acid, reference compound]",showed obvious ruffle formation,eGFP expression could be observed after five hours,–,–,–,–,–
at least 10 hours,CC1=CC(=O)CC(C)(C)[C@@]1(O)/C=C/C(C)=C\C(=O)OCc1ccc(B2OC(C)(C)C(C)(C)O2)cc1 [ABA-HP],–,–,showed obvious ruffle formation,eGFP expression could be observed after five hours,dose-dependent eGFP expression,eGFP expression was indeed observed,not observed within a 10-hour period
